The values below are quoted from earlier work in US7988998B2, “Sustained-release tramadol formulations with 24-hour efficacy” (Labopharm Inc., priority 2002, dated 2011).

Structures can show the parent of a compound that is named as a salt.

For this series the following is noted: patients receiving tramadol HCl.

`COc1cccc(C2(O)CCCCC2CN(C)C)c1` (stereo not shown) [tramadol HCl, Tramadol hydrochloride]: the “estimated incidence of seizures” value was “less than 1%”.
